Experimental data published in patent publication US20040006042A1, “Diaminopyrimidines and combination therapies effective for treatment of P-glycoprotein positive cancers” (priority 1998, published 2004).
Values after ≈ are worked out from the molar mass of the structure shown. Values joined by “and” are separate entries in the source; they are usually repeats but may differ in a detail not shown here. Identical values can stand only once. Counter-ions that a name gives are not always drawn. Like-named read-outs stand apart in the source and are kept apart here.

Experiments:
dihydrofolate reductase = target: T1, dihydrofolate reductase (Homo sapiens, UniProt P00374); assay: Inhibition of dihydrofolate reductase (Table 1); assay type: biochemical
T1 sequence (P00374 1-187): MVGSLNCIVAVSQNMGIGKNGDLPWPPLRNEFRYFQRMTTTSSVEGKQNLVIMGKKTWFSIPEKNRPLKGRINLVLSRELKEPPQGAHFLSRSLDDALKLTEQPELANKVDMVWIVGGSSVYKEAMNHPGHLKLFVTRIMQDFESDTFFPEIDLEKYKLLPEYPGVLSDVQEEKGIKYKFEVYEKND

P388/ADR cells [1] = assay: In vitro growth inhibition of P388/ADR cells; assay type: cell-based, murine; details: for IC50: Mus musculus, P388/ADR; for R/S: ratio resistant (P388/ADR) to sensitive (P388S) IC50
P388/ADR leukemia = assay: In vivo P388/ADR leukemia life span study; parameters: species or system CD2F1 mice; details: for P388/ADR T/C: maximum tolerated dose, i.p. Days 3-11 (Adriamycin Days 3, 7, 11), >130 = antitumor effect
P388S cells = assay: In vitro growth inhibition of P388S cells; assay type: cell-based; details: for IC50: Mus musculus, P388/S, read-out: P388S IC50
P388 leukemia = assay: In vivo P388 leukemia life span study; parameters: species or system CD2F1 mice; details: maximum tolerated dose, i.p. Days 3-11 (Adriamycin Days 3, 7, 11); >130 = antitumor effect
[2] = tested on: Colon 26/clone 10 (C26/10); assay: Colon 26/clone 10 i.p. life span study; assay type: in vivo, CD2F1 mice; details: for C26 ip T/C: i.p. implant, treated i.p. Days 3-7 and 10-14 (Adriamycin Days 5, 9, 13), >130 = antitumor effect
Method: (§1) To test compounds of the present invention in vivo, the following methodology was used. P388 leukemia and its Adriamycin resistant subline, P388/ADR were passed weekly in DBA/2 mice as i.p. implants of 10^5 and 10^6 cells, respectively. Animals bearing P388/ADR passage were treated with 7 mg/kg Adriamycin on Day 3 post-implant as a resistance selection pressure. C26/clone 10 was passed every 2 weeks into Balb/c mice as tumor fragments (approximately 30 mg) which were obtained from tumors 1 g in mass.
Colon 26/clone 10 (C26/10) life span studies were conducted in CD2F1 mice. C26/C10 cells were implanted i.p. on Day 0. Animals were treated i.p. with test agents in the vehicles described above on Days 3-7 and 10-14. Adriamycin was dosed i.p. in saline on Days 5, 9, and 13. […] Percent T/C values in excess of 130 are indicative of an antitumor effect in this model.

P388/ADR cells [3] = assay: Combination of antifolates with FU and LV on P388/ADR proliferation; assay type: cell-based, murine; details: P388/ADR; for Antifol + FU / Antifol + LV / Antifol + LV + FU: antifolate 1 nM 24 hours; for Antifol + FU / Antifol + LV + FU: 5 μM FU final 4 hours; for Antifol + LV / Antifol + LV + FU: LV 10 μM final 4.5 hours; for Antifol: antifolate 1 nM, 24 hours
C26/10 tumor = assay: C26/10 s.c. tumor growth delay study; assay type: in vivo, CD2F1 mice; details: tumor growth delay to 750 mg, s.c. implant, treated i.p. Days 3-7 and 10-14; >5 to 6 days = antitumor effect
Method: as §1
For the tumor growth delay studies with C26/10, CD2F1 mice were implanted s.c. with 30 mg tumor fragments in the region of the right axilla with the aid of a trocar on Day 0. Animals were treated i.p. with test agents in the vehicles described above on Days 3-7 and 10-14. Adriamycin was dosed i.p. in saline on Days 5, 9, and 13. Tumors in the treated and control groups were measured twice weekly in two perpendicular dimensions and tumor mass calculated according to the formula: mass (mg)=(a×b^2)/2 where “b” is the smallest tumor dimension and “a” is the largest. Calculations of tumor growth delay, defined as the median time (in days) for the treated tumors to reach 750 mg in size minus the median time (in days) for the control tumors to reach 750 mg in size, were as described previously (Schabel, 1977; Leopold, 1985; Elliot, 1984). Growth delays in excess of 5 to 6 days in the C26/10 model are considered to be an antitumor effect.

[4] = tested on: P388 murine leukemia cells; assay: Combination of antifolates with FU and LV on P388 proliferation; assay type: cell-based; details: for Antifol + FU / Antifol + LV / Antifol + LV + FU: antifolate 1.0 nM 24 hours; for Antifol + FU / Antifol + LV + FU: 5 μM FU final 4 hours; for Antifol + LV / Antifol + LV + FU: LV 10 μM final 4.5 hours; for Antifol: antifolate 1.0 nM, 24 hours
[5] = tested on: HT29 human colon adenocarcinoma cells
[6] = tested on: HT29 human colon adenocarcinoma cells; assay: Combination of antifolates with FU and LV on HT-29 proliferation (sulphorhodamine B); details: for Antifol + LV: antifolate 62.5 nM 24 hours, LV 10 μM final 4.5 hours; for Antifol: antifolate 62.5 nM, 24 hours
[7] = tested on: C26 murine colon tumor cells; assay: Combination of antifolates with FU and LV on C26 proliferation; assay type: cell-based; details: C26; 5 μM FU alone, 4 hours

Cc1nc(N)nc(N)c1N1CCN(c2ccc(CNC(CCC(=O)O)C(=O)O)cc2)CC1 (stereo not shown) [A]
Ki (dihydrofolate reductase; read-out: Ki): 0.053 nM

COc1cccc2c1C(=O)c1c(O)c3c(c(O)c1C2=O)C[C@@](O)(C(=O)CO)C[C@@H]3O[C@H]1C[C@H](N)[C@H](O)[C@H](C)O1 [Adriamycin, reference compound]
IC50 (P388/ADR cells [1]; in vitro): 3.9 µg/mL (≈ 7.18 µM) | R/S (P388/ADR cells [1]): 52 | activity against P388/ADR tumors in vivo (P388/ADR leukemia; in words): inactive | P388/ADR T/C (P388/ADR leukemia): 108% | IC50 (P388S cells; in vitro): 0.075 µg/mL (≈ 0.138 µM) | P388S T/C (P388 leukemia): 250% | C26 ip T/C [2]: 180%

Cc1nc(N)nc(N)c1N1CCN(c2ccc(C(=O)O)cc2)CC1 [B, 4-[4-(2,4-Diamino-6-methyl-pyrimidin-5-yl)-piperzain-1-yl]-benzoic acid]
Antifol + FU (P388/ADR cells [3]): 30% of control | Antifol + LV (P388/ADR cells [3]): 70% of control | Antifol + LV + FU (P388/ADR cells [3]): 28% of control | Antifol (P388/ADR cells [3]): 62% of control | Ki (dihydrofolate reductase): 0.201 nM

CCOC(=O)CCC(NC(=O)c1ccc(N2CCN(c3c(N)nc(N)nc3CC)CC2)cc1)C(=O)OCC (stereo not shown) [C, 2-{4-[4-(2,4-Diamino-6-ethyl-pyrimidin-5-yl)-pierazin-1-yl]-benzoylamino}pentanedioic acid diethyl ester]
Antifol + FU (P388/ADR cells [3]): 40% of control | Antifol + LV (P388/ADR cells [3]): 80% of control | Antifol + LV + FU (P388/ADR cells [3]): 30% of control | Antifol (P388/ADR cells [3]): 88% of control | Ki (dihydrofolate reductase): 0.109 nM

Cc1nc(N)nc(N)c1-c1ncncc1-c1ccc(C(=O)O)cc1 [Compound F, 4-[4-(2,4-Diamino-6-methyl-pyrimidin-5-yl)-pyrimidin-5-yl]-benzoic acid]
IC50 (P388/ADR cells [1]; in vitro): 0.04 µg/mL (≈ 0.124 µM) | R/S (P388/ADR cells [1]): 1.1 | IC50 (P388S cells; in vitro): 0.033 µg/mL (≈ 0.102 µM) | P388S T/C (P388 leukemia): 260%

CC(=O)c1ccc(N2CCN(c3c(C)nc(N)nc3N)CC2)cc1 [D, 1-{4-[4-(2,4-Diamino-6-methyl-pyrimidin-5-yl)-piperazin-1-yl]-phenyl}-ethanone]
C26 sc T-C (C26/10 tumor): 17.3 days | IC50 (P388/ADR cells [1]; in vitro): 0.01 µg/mL (≈ 0.0306 µM) | R/S (P388/ADR cells [1]): 1 | P388/ADR T/C (P388/ADR leukemia): 180% | Antifol + FU [4]: 10% of control | Antifol + LV [4]: 110% of control | Antifol + LV + FU [4]: 5% of control | Antifol [4]: 70% of control | IC50 (P388S cells; in vitro): 0.01 µg/mL (≈ 0.0306 µM) | Antifol + FU [5]: 50% of control | Antifol + LV + FU [5]: 42% of control | Ki (dihydrofolate reductase): 0.131 nM | Antifol + LV [6]: 90% of control | Antifol [6]: 92% of control | P388S T/C (P388 leukemia): 182% | C26 ip T/C [2]: 171%

Cc1nc(N)nc(N)c1N1CCN(c2ccc(S(C)(=O)=O)cc2)CC1 [E]
Ki (dihydrofolate reductase): 0.138 nM

Cc1nc(N)nc(N)c1N1CCN(c2ccc(C=O)cc2)CC1 [Example 1]
C26 sc T-C (C26/10 tumor): 7.6 days | IC50 (P388/ADR cells [1]; in vitro): 0.0068 µg/mL (≈ 0.0218 µM) | R/S (P388/ADR cells [1]): 1.1 | P388/ADR T/C (P388/ADR leukemia): 169% | IC50 (P388S cells; in vitro): 0.005 µg/mL (≈ 0.016 µM) | Ki (dihydrofolate reductase): 0.073 nM | P388S T/C (P388 leukemia): 190% | C26 ip T/C [2]: 263% | activity against C26 colon tumor in vivo ([2]; in words, T/C×100>130 represents in vivo antitumor activity): curative

Cc1nc(N)nc(N)c1N1CCN(c2ccc(C(=O)NN)cc2)CC1 [Example 11, 4-[4-(2,4-Diamino-6-methyl-5-pyrinidinyl)-1-piperazinyl]benzoic acid, hydrazide]
IC50 (P388/ADR cells [1]; in vitro): 0.0161 µg/mL (≈ 0.047 µM) | R/S (P388/ADR cells [1]): 1.5 | P388/ADR T/C (P388/ADR leukemia): 161% | IC50 (P388S cells; in vitro): 0.0105 µg/mL (≈ 0.0307 µM) | Antifol + FU [5]: 42% of control | Antifol + LV + FU [5]: 33% of control | Antifol + FU (P388/ADR cells [3]): 48% of control | Antifol + LV (P388/ADR cells [3]): 80% of control | Antifol + LV + FU (P388/ADR cells [3]): 16% of control | Antifol (P388/ADR cells [3]): 77% of control | Antifol + LV [6]: 80% of control | Antifol [6]: 87% of control | P388S T/C (P388 leukemia): 195% | C26 ip T/C [2]: 164%

Cc1nc(N)nc(N)c1N1CCN(c2ccc(/C=N/OCCN)cc2)CC1 [Example 12, 4-[4-(2,4-Diamino-6-methyl-pyrimidin-5-yl)-piperazin-1-yl]-benzaldehyde O-(2-amino-ethyl)-oxime, dihydrochloride]
C26 sc T-C (C26/10 tumor): 5.2 days | IC50 (P388/ADR cells [1]; in vitro): 0.0117 µg/mL | R/S (P388/ADR cells [1]): 1.1 | Antifol + FU [4]: 20% of control | Antifol + LV [4]: 97% of control | Antifol + LV + FU [4]: 16% of control | Antifol [4]: 100% of control | IC50 (P388S cells): 0.011 µg/mL | Antifol + FU [5]: 35% of control | Antifol + LV + FU [5]: 27% of control | Antifol + FU (P388/ADR cells [3]): 30% of control | Antifol + LV (P388/ADR cells [3]): 65% of control | Antifol + LV + FU (P388/ADR cells [3]): 25% of control | Antifol (P388/ADR cells [3]): 65% of control | Antifol + LV [6]: 67% of control | Antifol [6]: 52% of control

Cc1nc(N)nc(N)c1N1CCN(c2ccc(C(=O)N(C)N)cc2)CC1 [Example 13, 4-[4-(2,4-Diamino-6-methyl-5-pryimidinyl)-1-piperazinyl]benzoic acid, 1-methylhydrazide]
Antifol + FU [4]: 10% of control | Antifol + LV [4]: 85% of control | Antifol + LV + FU [4]: 7% of control | Antifol [4]: 85% of control

O=c1[nH]cc(F)c(=O)[nH]1 [FU, 5-fluorouracil, reference compound]
FU [7]: 72% of Control | FU ([4]; 5 μM FU alone, 4 hours): 90% of control and 90* percent of control | FU (P388/ADR cells [3]; 5 μM FU alone, 4 hours): 90% of control and 90* percent of control

Nc1ncc(N2CCN(c3ccc(C(=O)O)cc3)CC2)c(N)n1 [G]
C26 sc T-C (C26/10 tumor): 4.9 days | P388/ADR IC50 (P388/ADR cells [1]; in vitro): 0.074 µg/mL | R/S (P388/ADR cells [1]): 0.98 | P388/ADR T/C (P388/ADR leukemia): 245% | P388S IC50 (P388S cells; in vitro): 0.076 µg/mL | P388S T/C (P388 leukemia): 220% | C26 ip T/C [2]: 202%

CC(=O)c1ccc(N2CCN(c3c(C)nc(N)nc3N)CC2)cc1F [H, 1-{4-[4-(2,4-Diamino-6-methyl-pyrimidin-5-yl)-piperazin-1-yl]-2-fluoro-phenyl}-ethanone]
C26 sc T-C (C26/10 tumor): 9.4 days | IC50 (P388/ADR cells [1]; in vitro): 0.029 µg/mL (≈ 0.0842 µM) | R/S (P388/ADR cells [1]): 1.1 | Antifol + FU [4]: 20% of control | Antifol + LV [4]: 86% of control | Antifol + LV + FU [4]: 15% of control | Antifol [4]: 82% of control | IC50 (P388S cells; in vitro): 0.0026 µg/mL (≈ 0.00755 µM) | Antifol + FU [5]: 52% of control | Antifol + LV + FU [5]: 40% of control | Antifol + LV [6]: 77% of control | Antifol [6]: 74% of control | P388S T/C (P388 leukemia): 170% | C26 ip T/C [2]: 169%
